Legend:
Sp1 promoter = Sp1 promoter luciferase reporter in PANC-1 cells; assay type: cell-based, human; conditions: 100 μg/ml BVZ or 0.1 μM MIT
Method: FIG. 15. Effects of treatment with BVZ and MIT on Sp1 recruitment into the Sp1 promoter in human pancreatic cancer cells in vitro and in vivo. A, schematic structures of the minimal Sp1 promoters. The nucleotide positions and sequences of Sp1-binding sites and polymerase chain reaction forward and reverse primers flanking those sites for ChIP assay are shown. B, Sp1 and VEGF promoter reporter constructs were transfected into PANC-1 cells in triplicate and incubated for 12 hours. The cells were then incubated for another 24 hours in a medium alone or a medium containing 100 μg/ml BVZ or 0.1 μM MIT. Total protein lysates were harvested from the cell cultures for measurement of Sp1 and VEGF promoter activity using a luciferase assay kit. The relative Sp1 and VEGF promoter activities were assessed, and the activity in treated groups was expressed as the fold change of that in their respective control groups. C and D, chromatin was extracted from (C) PANC-1 cells that were incubated in vitro for 2 days in a medium alone or a medium containing 100 μg/ml BVZ or 0.1 μM MIT and (D) tumors formed by PANC-1 cells in nude mice that received treatment as described in FIG. 2A. […]
Sp1 promoter constructs and analysis of Sp1 promoter activity. […] The reporter luciferase activity was measured 48 hours later using a luciferase assay kit (Promega, Madison, Wis.). […]

[1] = system: Sp1, VEGF, EGFR, PDGFA, CD31 (MVD); experiment: Gene expression and MVD in H727 tumor tissues; assay type: in vivo, nude mice
Method: FIG. 20. Upregulation of Sp1 and VEGF expression by treatment with BVZ and its reversal by treatment with MIT. The tumor tissues described in FIG. 4 were collected and processed as described in Materials and Methods. A. Frozen sections made from the tumors were used CD31 staining and MVD assessment. Representative photos of the stains are shown. B. Total protein lysates were harvested from tumor tissues, and the expression levels of Sp1, VEGF, EGFR and PDGFA protein were determined using Western blot analyses. Equal protein-sample loading was monitored by probing the same membrane filter with an anti-GAPDH antibody. C. The expression levels of Sp1, VEGF, EGFR and PDGFA were further determined by calculating the ratios between those genes and GAPDH.
Western blot analysis. Whole-cell lysates were prepared from human LGNET cell lines and tissues (21). Standard Western blotting was performed using polyclonal rabbit antibodies against human and mouse Sp1, VEGF, EGFR and PDGFA (Santa Cruz Biotechnology, Santa Cruz, Calif.) and the anti-rabbit IgG antibody, a horseradish peroxidase-linked F(ab′)2 fragment obtained from a donkey (Amersham, Arlington Heights, Ill.). Equal protein-sample loading was monitored by probing the same membrane filter with an antibody against glyceraldehyde-3-phosphate dehydrogenase (GAPDH) (21). The probe proteins were detected using the Amersham enhanced chemiluminescence system according to the manufacturer's instructions.
Immunohistochemical analysis and quantification of tumor MVD. For CD31 staining, frozen tissue sections (5 μm thick) were fixed in acetone. Endogenous peroxidase in the specimens was blocked using 3% hydrogen peroxide in phosphate-buffered saline (PBS) for 12 minutes. […] For quantification of tumor MVD, vessels on each section were counted in five high-power fields (magnification, ×200 [×20 objective and ×10 ocular]) as described previously (40). […]

Substance: bevacizumab [BVZ]
- Sp1 promoter activity (Sp1 promoter): did not suppress Sp1 promoter activity
- expression of PDGFA, VEGF, and EGFR in H727 tumor tissue ([1]; combination study (FIGS. 20B and 20C), Western blot): upregulated the expression of other proangiogenic molecules
- Sp1 expression in H727 tumor tissue ([1]; combination study: PBS, BVZ, MIT, or B+M (FIG. 20)): increased expression of Sp1
- MVD ([1]; combination study: low-dose BVZ or MIT alone (FIG. 20)): did not significantly reduce MVD

— patent publication US20080274121A1, “Inhibition of Angiogenesis by Mithramycin” (priority 2007, published 2008)
